Our source for the IC50 values is publication PMC8810880, “Comprehensive characterization and molecular insights into the salt tolerance of a Cu, Zn-superoxide dismutase from an Indian Mangrove, Avicennia marina” (Scientific Reports, 2022).

The target in this experiment is T1, Am_SOD (recombinant Cu, Zn-superoxide dismutase) (Avicennia marina, UniProt Q9AXH2).
T1 construct: full-length 459 bp ORF in pET22b+ (NdeI/XhoI), 6xHis tag (printed as N-terminal); homodimer ~32-33 kDa, monomer ~16 kDa; no signal peptide found
T1 sequence (Q9AXH2 1-152): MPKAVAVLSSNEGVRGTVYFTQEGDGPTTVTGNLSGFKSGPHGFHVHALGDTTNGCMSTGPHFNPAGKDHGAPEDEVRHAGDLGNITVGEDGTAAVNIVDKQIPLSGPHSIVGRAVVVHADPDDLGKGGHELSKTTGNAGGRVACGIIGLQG
Briefly: riboflavin-NBT SOD inhibition assay, A560. Type of experiment: biochemical. The source says:
riboflavin-NBT SOD inhibition assay, A560 on Am_SOD (recombinant Cu, Zn-superoxide dismutase) | inhibited in a dose-dependent manner by sodium diethyldithiocarbamate trihydrate, and the IC50 was obtained at […]

SMILES strings stand for the structures.

`CCN(CC)C(=S)S` [DDC, sodium diethyldithiocarbamate trihydrate]: the IC50 was 1.5 mM.

In general, IC50 refers to the concentration that gives 50% inhibition.
